From EP4772500A1, “NOVEL ISOXAZOLE COMPOUND AS TM4SF5-SPECIFIC INHIBITOR AND USE THEREOF” (Seoul National University R&DB Foundation, priority 2023, dated 2025)

Target: T1, TM4SF5 and SLAMF7 (Homo sapiens, UniProt O14894)
T1 construct: expressed in transfected cells; host or cells: SNU761 human hepatocellular carcinoma cells
T1 sequence (O14894 1-197): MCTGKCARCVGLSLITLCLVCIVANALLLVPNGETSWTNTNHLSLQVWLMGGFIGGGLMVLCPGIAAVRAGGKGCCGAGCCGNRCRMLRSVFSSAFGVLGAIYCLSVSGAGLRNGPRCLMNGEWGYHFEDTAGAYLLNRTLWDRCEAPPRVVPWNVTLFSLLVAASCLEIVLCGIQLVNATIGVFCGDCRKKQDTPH
Assay: Streptavidin pulldown: binding between TM4SF5 and SLAMF7
Format: cell-based
Description: Cells were cultured to ~60% density in a cell incubator at 37°C and 5% CO2, and then transfected using PEI and cultured in a cell incubator at 37°C for two days. After cultivation, cell extracts were obtained by the method described above. After precipitating a desired protein from the cell extracts using an immunoprecipitation method, the binding proteins were identified by the Western blot technique described above. Specifically, cells cultured in a 100 mm cell culture dish for two days were washed twice with PBS, and protease inhibitor cocktails (GenDepot, USA) were added to 500 µl of immunoprecipitation lysis buffer (0.5% Triton X-100 or Brij 58, 40 mM HEPES, 150 mM NaCl, 1 mM EDTA, pH 7.4), followed by treatment at 4°C for 15 minutes. After collecting the cells, centrifugation was performed at 12,000x g at 4°C for 15 minutes, and the supernatant was transferred to a new microcentrifuge tube to obtain a cell extract. Proteins therein were quantified using a BCA reagent (Thermo Scientifics, USA). An electrophoresis sample was prepared by adding 4x laemmli sample buffer to a portion of the quantified sample and boiling at 100°C for 5 minutes. For immunoprecipitation, Streptavidin Agarose Resin (Thermo Fisher Scientific) or anti-HA antibody-coated Sepharose beads were added in proportion to the quantified protein amount, followed by rotation at 4°C for 4 hours, and then centrifugation was performed at 7,000x g at 4°C for 5 minutes and the supernatant was discarded. […] (f) After treating NK92-EV or NK92-TM4SF5 cells with DMSO or drugs ST-2-001 (1 nM), ST-3-005 (10 nM or 1 µM), ST-5-001, or ST-5-002 (100 nM or 1 µM) for 24 hours, the expression of SLAMF7 expressed on the cell surface was analyzed through immunostaining using flow cytometry. The expression level of SLAMF7 was confirmed by adding a SLAMF7 antibody to bind with SLAMF7 and then measuring the fluorescence linked to the SLAMF7 antibody using flow cytometry. […]

[1] = SNU761 expressing TM4SF5-Strep and FLAG-SLAMF7, 24 hours, brij58 lysis (FIG. 15e-f)

`COc1cccc(-c2cc(-c3ccc(NC(C)=O)cc3)no2)c1` [ST-3-001, N-(4-(5-(3-methoxyphenyl)isoxazole-3-yl)phenyl)acetamide] was tested, and the “binding between TM4SF5 and SLAMF7” value [1] was “did not decrease but rather showed an increasing trend”.
`CC(=O)Nc1ccc(-c2cc(-c3ccc(O)cc3)no2)cc1` [ST-5-001, N-(4-(3-(4-hydroxyphenyl)isoxazole-5-yl)phenyl)acetamide] was tested, and the “binding between TM4SF5 and SLAMF7” value (2.5 µM, 24 hours, SNU761 (FIG. 13j)) was “inhibited”.
`Cc1ccc(C(=O)Nc2ccc(-c3cc(-c4ccc(O)cc4)no3)cc2)cc1` [ST-5-002, N-(4-(3-(4-hydroxyphenyl)isoxazole-5-yl)phenyl)-4-methylbenzamide] was tested, and the “binding between TM4SF5 and SLAMF7” value [1] was “decreased”.
